Assay [1] relates to 806-mCD28z-CAR-T cells. In words: Flow cytometry (CellTrace) of CAR-T proliferation in co-culture with breast cancer cells. It counts as cell-based, mouse. As to conditions: co-incubation 1:1, 16 hours. The protocol: The experimental groups are as follows: 806-mCD28z-CAR-T group (or denoted as 806-28Z), olaparib pretreatment group, and olaparib combined treatment group;
The olaparib pretreatment group comprises: 806-mCD28z-CAR-T+1 μM olaparib pretreatment group (or denoted as 806-28Z+Olaparib 1 μM pretreatment), 806-mCD28z-CAR-T+5 μM olaparib pretreatment group (or denoted as 806-28Z+Olaparib 5 μM pretreatment);
Olaparib combined treatment group comprises: 806-mCD28z-CAR-T+1 μM olaparib combined treatment group (or denoted as 806-28Z+Olaparib 1 μM), 806-mCD28z-CAR-T+5 μM olaparib combined treatment group (or denoted as 806-28Z+Olaparib 5 μM).
Before the co-incubation experiment, 806-mCD28z-CAR-T cells need to be stained with CellTrace dye. […]
Olaparib pretreatment group: different concentrations of olaparib (1 μM, 5 μM) are respectively added to a medium for culturing E0771-EGFRvIII or 4T1-EGFRvIII tumor cells, after culturing at 37° C. for 24 hours, the cells are treated with trypsin and resuspended in fresh medium. 806-mCD28z-CAR T cells in Example 1 are taken to co-incubate with E0771-EGFRVIII or 4T1-EGFRvIII cells pretreated with different concentrations of olaparib at a ratio of 1:1; 16 hours later, the proliferation of CAR-T cells and the expression levels of the T cell exhaustion-related proteins PD1, LAG3 and TIM3 on the surface of CAR-T cells are detected by flow cytometry. […]
For orientation: Flow cytometry measures light scatter and fluorescence of single cells or particles in a stream.

The subject of assay [2] is 806-mCD28z-CAR-T cells. As to the kind of experiment: CCK8 proliferation assay, olaparib on CAR-T cells. It counts as cell-based, mouse. The protocol:
As an effective inhibitor of PARP1, olaparib may inhibit PARP1 to participate in DNA damage repair process. In mouse breast cancer cell lines and mouse T cells and CART cells, different levels of PARP1 expression are detected (FIG. 2B). Therefore, CCK8 proliferation assay is required to detect the effect of olaparib on proliferation of tumor cells and CART cells.
806-m28Z CAR-T cells in Example 1 are taken to spread in a 96-well plate with 1×10^4 cells per well and 100 μl medium. Breast cancer cells E0771-EGFRvIII and 4T1-EGFRvIII are taken to spread in a 96-well plate with 1×10^4 cells per well and 100 μl medium. Different concentrations of olaparib are taken to add to the cells to make 10 concentration gradients (i.e., the treatment concentrations of olaparib are respectively 50 μM, 20 μM, 10 μM, 5 μM, 2.5 μM, 1 μM, 0.1 μM, 0.01 μM, 0.001 μM, 0 μg/ml). After 48 hours of drug treatment for cells of different groups, 10 μl of CCK8 substrate color reagent (Dojindo) is added to each well; after incubating for 1 hour at 37° C., the absorbance at 450 nm is measured by a microplate reader, calculating the cell viability respectively.
The formula for calculating the cell viability is as follows:
Cell viability (%)=[A (adding drug)−A (blank)]/[A (without adding drug)−A (blank)]
For orientation: Tetrazolium dyes change colour on reduction, which living cells bring about.

Regarding `O=C(c1cc(Cc2n[nH]c(=O)c3ccccc23)ccc1F)N1CCN(C(=O)C2CC2)CC1` [olaparib], the “proliferation of CART cells” value in assay [1] (olaparib combined treatment group (1 μM, 5 μM), not statistically significant) is “slightly inhibited”; in assay [1] (olaparib pretreatment group (1 μM, 5 μM)) it was “not significantly affected”. In addition, the “proliferation of 806-mCD28z-CAR-T cells” value in assay [2] (1 μM olaparib) is reported as “not affected”; in assay [2] (olaparib), “inhibited”. In addition, the “inhibition rate of proliferation of 806-mCD28z-CAR-T cells” value in assay [2] (2.5 μM and higher concentration of olaparib, 48 hours, CCK8) is given as about 80%. In addition, in assay [2] (in vitro), the “concentration that may inhibit the growth of CAR-T cells” value is reported as “higher than 2.5 μM”.

The values are drawn from patent publication US20230158071A1, “TUMOR COMBINED IMMUNOTHERAPY” (CRAGE medical Co., Limited, priority 2018, published 2023).
